Test [1] concerns the target T1, NPY Y1 (Homo sapiens, UniProt P25929).
T1 construct: SK-N-MC cells endogenously expressing Y1; host or cells: SK-N-MC
T1 sequence (P25929 1-384): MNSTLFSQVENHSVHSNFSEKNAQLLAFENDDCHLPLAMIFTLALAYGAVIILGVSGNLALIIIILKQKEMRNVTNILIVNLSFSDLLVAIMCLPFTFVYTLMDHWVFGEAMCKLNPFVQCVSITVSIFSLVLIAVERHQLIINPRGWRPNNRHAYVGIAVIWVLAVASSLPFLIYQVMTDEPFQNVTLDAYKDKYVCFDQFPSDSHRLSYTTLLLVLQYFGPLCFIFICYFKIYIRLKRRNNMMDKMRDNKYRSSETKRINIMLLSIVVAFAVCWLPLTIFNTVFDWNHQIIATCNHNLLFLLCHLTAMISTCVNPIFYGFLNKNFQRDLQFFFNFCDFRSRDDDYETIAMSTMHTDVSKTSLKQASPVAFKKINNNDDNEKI
Briefly: Adenylate cyclase activity (forskolin-stimulated cAMP accumulation) flashplate assay in SK-N-MC cells. The format is cell-based. The note with it: for Activity Y1-cAMP (SK-N-MC): agonistic or antagonistic property: SK-N-MC cells. Here is the method: Cells were incubated for 30 min with 10 μM forskolin in the presence of [Leu^31-Pro^34]-PYY (LP-PYY) at concentrations ranging between 0.01 nM and 20 μM alone ([…]) or with 10 μM forskolin in the presence of LP-PYY at concentrations ranging between 0.01 nM and 20 μM supplemented with a fixed concentration of 20 μM of the analog Peptide No. 11 (▪). […] Peptide No. 11 given alone has no effect on the accumulation of forskolin-stimulated cAMP (▴).
Adenylate cyclase activity with respect to NPY Y1 was determined in SK-N-MC cells using the adenylate cyclase activation flashplate assay (SMP004) from PerkinElmer. SK-N-MC cells were seeded in 96-well culture plates at 25,000 cells/well and cultured for 48 h at 37° C. and 5% CO2. Culture medium was then removed from the wells and fresh medium (100 μL) containing 0.5 mM 3-isobutyl-1-methylxanthine (IBMX) was added to each well. Cells were incubated for 30 min at 37° C. Medium was then removed and replaced with fresh medium containing 0.5 mM IBMX, with or without 10 μM forskolin and various concentrations of the peptides to be analyzed. Cells were incubated for 30 min at 37° C. After removal of the medium, cells were lysed and cAMP accumulation was determined using the SMP004 kit from PerkinElmer.
Because the addition of a DOTA moiety can change the functional characteristics of a compound, as recently shown in the somatostatin receptor field for sst3, compounds having a high or moderate Y1 affinity were analyzed in an adenylate cyclase activity assay for their agonistic or antagonistic properties. […] Given alone at a high concentration of 20 μM, they were unable to inhibit forskolin-stimulated cAMP accumulation but they efficiently antagonized the agonistic effect of 100 nM [Leu^31, Pro^34]-hPYY. […] The conclusion is that the DOTA-conjugated compound, i.e. Peptide No. 11, with its high binding affinity and its antagonist property represents an excellent candidate for in vivo tumor targeting.

Test [2] addresses T1, NPY Y1. As to the kind of experiment: Receptor autoradiography binding, 125I-hPYY displacement on SK-N-MC cell membrane pellet sections. The note with it: for IC50: SK-N-MC membrane pellet sections, 125I-hPYY, read-out: Binding affinity (IC50 nM) Y1 (SK-N-MC); for Displacement of 125I-hPYY (FIG. 2): SK-N-MC cell line, competition experiments. Here is the method:
Testing of Peptides 1-11 was carried out using specific cell lines. The neuroepithelioma cell line SK-N-MC endogenously expressing the NPY Y1 receptor was obtained from ATCC (HTB-10; LGC Standards, Teddington, Middlesex, UK). Cells were cultured at 37° C. and 5% CO2 in MEM medium with GlutaMax I and supplemented with 10% FBS, 100 U/ml penicillin and 100 μg/ml streptomycin, 1 mM MEM sodium pyruvate, and MEM non-essential amino acids (1×). The neuroblastoma cell line SH-SY5Y endogenously expressing the NPY Y2 receptor, was provided by Dr. Paolo Paganetti (Novartis, Basel, Switzerland). Cells were cultured at 37° C. and 5% CO2 in MEM/Ham's F12 with GlutaMax I and supplemented with 10% FBS, 100 U/ml penicillin and 100 μg/ml streptomycin, 1 mM MEM sodium pyruvate, and MEM non-essential amino acids (1×).
Binding affinities of the compounds were assessed using sections of cell membrane pellets of SK-N-MC for NPY Y1 or SH-SY5Y for NPY Y2. Briefly, membrane pellets were prepared and stored at −80° C., and receptor autoradiography was performed on 20-μm thick cryostat sections of the membrane pellets, mounted on microscope slides and stored at −20° C. The slides were preincubated in Krebs-Ringer solution (NaCl 119 mM, KCl 3.2 mM, KH2PO4 1.19 mM, MgSO4 1.19 mM, NaHCO3 25 mM, CaCl2 2.53 mM, D-glucose 10 mM; pH 7.4) for 60 min at room temperature. Then, they were incubated for 120 min in Krebs-Ringer solution containing 0.1% BSA, 0.05% bacitracin, and 10 000 cpm/100 μl of the ^125I-labeled human PYY alone or with increasing concentrations ranging from 0.1 nM up to 1000 nM of non-labeled hPYY, as control, or with the compounds to be tested. After the incubation, the slides were washed two times for 5 min and then rinsed four times in ice-cold preincubation solution. After drying, the slides were exposed to Kodak films Biomax MR® for 7 days. IC50 values were calculated after quantification of the data using a computer-assisted image processing system. Tissue standards containing known amount of isotope, cross-calibrated to tissue-equivalent ligand concentrations were used for quantification.
The DOTA-free and DOTA-coupled analogs listed in Table 1 were analyzed in receptor autoradiography experiments for NPY Y1 and Y2 receptor binding affinities on SK-N-MC cells endogenously expressing Y1 and SH-SY5Y cells endogenously expressing Y2, respectively. Pharmacological displacement experiment using SK-N-MC cell membrane pellet sections for Peptides Nos. 9, 10 and 11 are shown in FIG. 2. The addition of two DOTA moieties to the homodimeric analogs decreases the Y1 binding affinity up to 2-30 fold.
A general note: Displacement assays read how much labelled ligand stays bound in the presence of the test substance.

Experimental findings from US20120259092A1, “NPY ANTAGONISTS” (priority 2011, published 2012) are described below.

Entries after “also recorded” stand apart in the source; their conditions may differ. Bridge positions count the residues as written; N and C are the ends. Square brackets hold non-standard residues; d marks the D form. Peptide text beside a SMILES is read from it. I, II: the chains in the order shown. * marks the point of attachment. DOTA = O=C(O)CN1CCN(CC(=O)O)CCN(CC(=O)*)CCN(CC(=O)O)CC1; Nle = CCCC[C@H](N)C(=O)O

Consider `CC[C@H](C)[C@H](NC(=O)CN1CCN(CC(=O)O)CCN(CC(=O)O)CCN(CC(=O)O)CC1)C(=O)N[C@@H](CC(N)=O)C(=O)N1CCC[C@H]1C(=O)N[C@@H](CSSC[C@H](NC(=O)[C@@H]1CCCN1C(=O)[C@H](CC(N)=O)NC(=O)[C@@H](NC(=O)CN1CCN(CC(=O)O)CCN(CC(=O)O)CCN(CC(=O)O)CC1)[C@@H](C)CC)C(=O)N[C@@H](Cc1ccc(O)cc1)C(=O)N[C@@H](CCCNC(=N)N)C(=O)N[C@@H](CC(C)C)C(=O)N[C@@H](CCCNC(=N)N)C(=O)N[C@@H](Cc1ccc(O)cc1)C(N)=O)C(=O)N[C@@H](Cc1ccc(O)cc1)C(=O)N[C@@H](CCCNC(=N)N)C(=O)N[C@@H](CC(C)C)C(=O)N[C@@H](CCCNC(=N)N)C(=O)N[C@@H](Cc1ccc(O)cc1)C(N)=O` [compound 2] (I: {DOTA}-INPCYRLRY-NH2 / II: {DOTA}-INPCYRLRY-NH2; disulfide I:4-II:4), for which the “Activity Y1-cAMP (SK-N-MC): agonistic or antagonistic property” value (“Activity Y1-cAMP (SK-N-MC)” for short) in test [1] (10 μM forskolin) is reported as “Antagonist”. Further, in test [2], the half-inhibitory concentration (IC50) (as a rule, the midpoint of a concentration-inhibition curve) is 143 ± 37 nM.

Regarding `CCCC[C@H](NC(=O)[C@H](CCCNC(=N)N)NC(=O)[C@H](Cc1c[nH]c2ccccc12)NC(=O)[C@H](CSSC[C@H](NC(=O)[C@@H]1CCCN1C(=O)[C@H](CC(N)=O)NC(=O)[C@@H](NC(=O)CN1CCN(CC(=O)O)CCN(CC(=O)O)CCN(CC(=O)O)CC1)[C@@H](C)CC)C(=O)N[C@@H](Cc1c[nH]c2ccccc12)C(=O)N[C@@H](CCCNC(=N)N)C(=O)N[C@@H](CCCC)C(=O)N[C@@H](CCCNC(=N)N)C(=O)N[C@@H](Cc1ccc(O)cc1)C(N)=O)NC(=O)[C@@H]1CCCN1C(=O)[C@H](CC(N)=O)NC(=O)[C@@H](NC(=O)CN1CCN(CC(=O)O)CCN(CC(=O)O)CCN(CC(=O)O)CC1)[C@@H](C)CC)C(=O)N[C@@H](CCCNC(=N)N)C(=O)N[C@@H](Cc1ccc(O)cc1)C(N)=O` [compound 4] (I: {DOTA}-INPCWR[Nle]RY-NH2 / II: {DOTA}-INPCWR[Nle]RY-NH2; disulfide I:4-II:4), the “Activity Y1-cAMP (SK-N-MC)” value in test [1] (10 μM forskolin) is “Antagonist”. In test [2], the IC50 worked out at 294 ± 33 nM.

On to `CCCC[C@H](NC(=O)[C@H](CCCNC(=N)N)NC(=O)[C@H](Cc1c[nH]c2ccccc12)NC(=O)[C@H](CSSC[C@H](NC(=O)[C@@H]1CCCN1C(=O)[C@H](CC(N)=O)NC(=O)[C@@H](N)[C@@H](C)CC)C(=O)N[C@@H](Cc1c[nH]c2ccccc12)C(=O)N[C@@H](CCCNC(=N)N)C(=O)N[C@@H](CCCC)C(=O)N[C@@H](CCCNC(=N)N)C(=O)N[C@@H](Cc1ccc(O)cc1)C(N)=O)NC(=O)[C@@H]1CCCN1C(=O)[C@H](CCCCNC(=O)CN1CCN(CC(=O)O)CCN(CC(=O)O)CCN(CC(=O)O)CC1)NC(=O)[C@@H](N)[C@@H](C)CC)C(=O)N[C@@H](CCCNC(=N)N)C(=O)N[C@@H](Cc1ccc(O)cc1)C(N)=O` [Peptide No. 11] (I: H-IK(DOTA)PCWR[Nle]RY-NH2 / II: H-INPCWR[Nle]RY-NH2; disulfide I:4-II:4), for which the “Activity Y1-cAMP (SK-N-MC)” value in test [1] (10 μM forskolin) is on record as “Antagonist”. Also, in test [1] (peptide alone, 20 μM, 10 μM forskolin), the “Effect on forskolin-stimulated cAMP accumulation, given alone” value is on record as “no effect”. In addition, in test [1] (peptide fixed at 20 μM, with increasing LP-PYY, 10 μM forskolin, 30 min), the “Effect on dose response curve of [Leu31,Pro34]-PYY (LP-PYY)” value is “shifts the dose response curve of LP-PYY to the right; also recorded: shift the dose response curve of [Leu^31, Pro^34]-hPYY to the right”. In test [2], the “Displacement of 125I-hPYY (FIG. 2)” value is on record as “high affinity displacements” and the IC50 came out at 13 nM.

As for “hPYY: non-labeled human peptide YY, used as control in binding competition [reference compound]”, the “Displacement of 125I-hPYY (FIG. 2)” value in test [2] is listed as “high affinity displacements”.

“[Leu^31, Pro^34]-hPYY [reference compound]”: the “Inhibition of forskolin-stimulated cAMP accumulation (agonist control)” value in test [1] (applied at 20 μM and 100 nM) was “efficiently inhibited forskolin-stimulated cAMP accumulation”.
